Experimental findings from patent US8476265B2, “Compounds-801” (AstraZeneca AB, priority 2010, dated 2013) are described below.

For test [1], the target named is T1, human muscarinic acetylcholine M3 receptor (Homo sapiens, UniProt P20309).
T1 construct: expressed in transfected cells; host or cells: CHO-K1 (Chinese Hamster Ovary) cell membranes
The experiment in a line: Muscarinic 3 receptor binding assay ([3H]NMS competition, SPA), pIC50. Conditions: [3H]NMS 0.1 nM, CHO-K1 cell membranes expressing human M3 receptor. Summed up: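 Competition of [3H]NMS (0.1 nM, quarter Kd) binding to CHO-K1 membranes expressing human M3, SPA format, in 20 mM HEPES pH 7.4, 5 mM MgCl2, 0.1% BSA, 1% DMSO. Incubated 16 h at room temperature; non-specific binding with 1 μM atropine; pIC50 from specific binding.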

Another test addresses T2, Adrenergic β2 (Homo sapiens, UniProt P07550).
T2 construct: Adherent H292 cells are removed from tissue culture flasks by treatment with Accutase™ cell detachment solution; endogenous in cells; host or cells: H292 cells
The experiment in a line: Adrenergic β2 mediated cAMP production in H292 cells (AlphaScreen), concentration response. Conditions: for EC50: 60 min, 300 μM rolipram, read-out: β2 pEC50 (converted); for β2 Intrinsic Activity: fraction relative to the maximum activity determined for formoterol. It is filed as cell-based. Summed up: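 H292 cells seeded overnight, pretreated 10 min with rolipram (300 μM final), then exposed to compounds 60 min at room temperature in HBSS/10 mM HEPES pH 7.4/5 mM glucose, 1% DMSO. Lysate cAMP quantified by AlphaScreen against a standard curve; four-parameter fit gives pEC50 and intrinsic activity relative to formoterol maximum.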
In general terms: cAMP levels reflect the balance of adenylyl cyclase and phosphodiesterase activity.

T1 sequence (P20309 whole entry): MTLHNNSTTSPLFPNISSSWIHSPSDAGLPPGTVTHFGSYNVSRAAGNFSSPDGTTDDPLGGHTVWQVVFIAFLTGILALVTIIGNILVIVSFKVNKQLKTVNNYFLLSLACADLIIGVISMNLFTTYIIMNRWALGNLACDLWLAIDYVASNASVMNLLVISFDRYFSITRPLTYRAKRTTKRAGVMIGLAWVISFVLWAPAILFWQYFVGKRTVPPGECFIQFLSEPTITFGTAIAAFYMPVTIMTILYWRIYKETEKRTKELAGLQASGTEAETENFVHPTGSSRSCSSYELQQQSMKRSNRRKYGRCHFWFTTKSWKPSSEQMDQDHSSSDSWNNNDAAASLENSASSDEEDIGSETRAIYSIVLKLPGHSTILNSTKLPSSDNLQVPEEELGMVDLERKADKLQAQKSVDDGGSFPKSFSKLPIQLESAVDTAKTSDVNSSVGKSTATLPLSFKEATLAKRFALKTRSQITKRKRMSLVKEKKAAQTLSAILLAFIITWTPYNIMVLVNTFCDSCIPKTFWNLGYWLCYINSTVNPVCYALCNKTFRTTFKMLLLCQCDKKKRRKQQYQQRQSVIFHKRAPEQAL
T2 sequence (P07550 whole entry): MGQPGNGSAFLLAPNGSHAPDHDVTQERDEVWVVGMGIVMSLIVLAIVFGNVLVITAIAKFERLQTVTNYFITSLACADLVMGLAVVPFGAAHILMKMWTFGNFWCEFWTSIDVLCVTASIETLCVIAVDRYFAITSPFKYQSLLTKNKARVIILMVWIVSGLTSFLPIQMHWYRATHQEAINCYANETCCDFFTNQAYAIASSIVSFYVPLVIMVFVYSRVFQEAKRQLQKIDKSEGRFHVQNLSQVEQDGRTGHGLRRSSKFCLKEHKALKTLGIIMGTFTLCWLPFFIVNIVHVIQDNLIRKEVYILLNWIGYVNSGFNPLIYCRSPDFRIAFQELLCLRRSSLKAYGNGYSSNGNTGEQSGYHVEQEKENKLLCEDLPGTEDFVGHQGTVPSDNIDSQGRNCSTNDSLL

Regarding `CC(C)c1nc(C(=O)N2CCOC3(CCN(CCc4cc(CCOCCC(=O)N(CCNCCc5ccc(O)c6c5OCC(=O)N6)C5CCCCC5)cs4)CC3)C2)cs1` [Example 63, N-Cyclohexyl-N-(2-(2-(5-hydroxy-3-oxo-3,4-dihydro-2H-benzo[b][1,4]oxazin-8-yl)ethylamino)ethyl)-3-(2-(5-(2-(4-(2-isopropylthiazole-4-carbonyl)-1-oxa-4,9-diazaspiro[5.5]undecan-9-yl)ethyl)thiophen-3-yl)ethoxy)propanamide ditrifluoroacetate], in test [1], the IC50 (commonly the concentration that gives 50% inhibition) is 2 nM. For the same compound, on Adrenergic β2, the EC50 is 158 nM and the “β2 Intrinsic Activity” value came out at 1.1.
As for `CCN(CCNCCc1ccc(O)c2[nH]c(=O)sc12)C(=O)CCOCCc1ccc(OCCCN2CCC3(CC2)CN(C(=O)c2csc(C(C)C)n2)CCO3)cc1` [Example 62, N-Ethyl-N-(2-(2-(4-hydroxy-2-oxo-2,3-dihydrobenzo[d]thiazol-7-yl)ethylamino)ethyl)-3-(4-(3-(4-(2-isopropylthiazole-4-carbonyl)-1-oxa-4,9-diazaspiro[5.5]undecan-9-yl)propoxy)phenethoxy)propanamide ditrifluoroacetate], in test [1], the IC50 was 0.794 nM. For the same compound, on Adrenergic β2, the EC50 was 100 nM and the “β2 Intrinsic Activity” value was determined as 0.7.
As to `CCCCN(CCNCCc1ccc(O)c2c1OCC(=O)N2)C(=O)CCOCCc1cccc(CN2CCC3(CC2)CN(C(=O)c2csc(CC)n2)CCO3)c1Cl` [Example 32, N-Butyl-3-(2-chloro-3-((4-(2-ethylthiazole-4-carbonyl)-1-oxa-4,9-diazaspiro[5.5]undecan-9-yl)methyl)phenethoxy)-N-(2-(2-(5-hydroxy-3-oxo-3,4-dihydro-2H-benzo[b][1,4]oxazin-8-yl)ethylamino)ethyl)propanamide ditrifluoroacetate], in test [1], the IC50 is 0.398 nM. Besides, at Adrenergic β2, the EC50 is 15.8 nM and the “β2 Intrinsic Activity” value turned out to be 0.9.
For `O=C1COc2c(CCNCCN(C(=O)CCOCCc3cccc(CN4CCC5(CC4)CN(C(=O)c4csc(-c6ccccc6)n4)CCO5)c3)C3CCCCC3)ccc(O)c2N1` [Example 82, N-Cyclohexyl-N-(2-(2-(5-hydroxy-3-oxo-3,4-dihydro-2H-benzo[b][1,4]oxazin-8-yl)ethylamino)ethyl)-3-(3-((4-(2-phenylthiazole-4-carbonyl)-1-oxa-4,9-diazaspiro[5.5]undecan-9-yl)methyl)phenethoxy)propanamide], in that order: 1.26 nM, 501 nM and 1.0.
Consider `CCc1nc(C(=O)N2CCOC3(CCN(Cc4cccc(CCOCCC(=O)N(CCNCCc5ccc(O)c6c5OCC(=O)N6)C5CCCC5)c4Cl)CC3)C2)cs1` [Example 33, 3-(2-Chloro-3-((4-(2-ethylthiazole-4-carbonyl)-1-oxa-4,9-diazaspiro[5.5]undecan-9-yl)methyl)phenethoxy)-N-cyclopentyl-N-(2-(2-(5-hydroxy-3-oxo-3,4-dihydro-2H-benzo[b][1,4]oxazin-8-yl)ethylamino)ethyl)propanamide ditrifluoroacetate], for which, in test [1], the half-maximal inhibitory concentration (IC50) is 0.398 nM. For the same compound, on Adrenergic β2, the EC50 was 15.8 nM and the “β2 Intrinsic Activity” value was 1.0.
For `CC(C)c1nc(C(=O)N2CCOC3(CCN(CCc4ccc(CCOCCC(=O)N(CCNCCc5ccc(O)c6c5OCC(=O)N6)C5CCCCC5)cc4)CC3)C2)cs1` [Example 2, N-Cyclohexyl-N-(2-(2-(5-hydroxy-3-oxo-3,4-dihydro-2H-benzo[b][1,4]oxazin-8-yl)ethylamino)ethyl)-3-(4-(2-(4-(2-Isopropylthiazole-4-carbonyl)-1-oxa-4,9-diazaspiro[5.5]undecan-9-371)ethyl)phenethoxy)propanamide ditrifluoroacetate], in that order: 1 nM, 31.6 nM and 0.9.
The like results for `CCN(CCNCCc1ccc(O)c2[nH]c(=O)sc12)C(=O)CCOCCc1cc(CN2CCC3(CC2)CN(C(=O)c2csc(C(C)C)n2)CCO3)ccc1F` [Example 43, N-Ethyl-3-(2-fluoro-5-((4-(2-isopropylthiazole-4-carbonyl)-1-oxa-4,9-diazaspiro[5.5]undecan-9-yl)methyl)phenethoxy)-N-(2-(2-(4-hydroxy-2-oxo-2,3-dihydrobenzo[d]thiazol-7-yl)ethylamino)ethyl)propanamide ditrifluoroacetate] were, in that order, 1 nM, 398 nM and 0.9.
The like results for `CC(C)c1cc(C(=O)N2CCOC3(CCN(Cc4cccc(CCOCCC(=O)N(CCNCCc5ccc(O)c6c5OCC(=O)N6)C5CCCCC5)c4)CC3)C2)cs1` [Example 91, N-Cyclohexyl-N-(2-(2-(5-hydroxy-3-oxo-3,4-dihydro-2H-benzo[b][1,4]oxazin-8-yl)ethylamino)ethyl)-3-(3-((4-(5-isopropylthiophene-3-carbonyl)-1-oxa-4,9-diazaspiro[5.5]undecan-9-yl)methyl)phenethoxy)propanamide] were, in that order, 0.2 nM, 251 nM and 1.2.
Consider `CC(C)c1nc(C(=O)N2CCOC3(CCN(Cc4cccc(CCCOCCC(=O)N(CCNCCc5ccc(O)c6c5OCC(=O)N6)C5CCCCC5)c4)CC3)C2)cs1` [Example 57, N-Cyclohexyl-N-(2-(2-(5-hydroxy-3-oxo-3,4-dihydro-2H-benzo[b][1,4]oxazin-8-yl)ethylamino)ethyl)-3-(3-(3-((4-(2-isopropylthiazole-4-carbonyl)-1-oxa-4,9-diazaspiro[5.5]undecan-9-yl)methyl)phenyl)propoxy)propanamide ditrifluoroacetate], for which the 50% inhibitory concentration (IC50) in test [1] was less than 0.0501 nM. Also, on Adrenergic β2, the EC50 was 316 nM and the “β2 Intrinsic Activity” value came to 0.9.
The like results for `O=C1COc2c(CCNCCN(C(=O)CCOCCc3cccc(CN4CCC5(CC4)CN(C(=O)c4ccc6sccc6c4)CCO5)c3)C3CCCCC3)ccc(O)c2N1` [Example 92, 3-(3-((4-(Benzo[b]thiophene-5-carbonyl)-1-oxa-4,9-diazaspiro[5.5]undecan-9-yl)methyl)phenethoxy)-N-cyclohexyl-N-(2-(2-(5-hydroxy-3-oxo-3,4-dihydro-2H-benzo[b][1,4]oxazin-8-yl)ethylamino)ethyl)propanamide] were, in that order, 1.26 nM, 251 nM and 1.1.
For `CC(C)c1nc(C(=O)N2CCOC3(CCN(Cc4cccc(CCOCCC(=O)N(CCNCCc5ccc(O)c6c5OCC(=O)N6)CCC(F)(F)F)c4F)CC3)C2)cs1` [Example 20, 3-(2-Fluoro-3-((4-(2-isopropylthiazole-4-carbonyl)-1-oxa-4,9-diazaspiro[5.5]undecan-9-yl)methyl)phenethoxy)-N-(2-(2-(5-hydroxy-3-oxo-3,4-dihydro-2H-benzo[b][1,4]oxazin-8-yl)ethylamino)ethyl)-N-(3,3,3-trifluoropropyl)propanamide ditrifluoroacetate], in that order: 0.2 nM, 79.4 nM and 1.1.
